{"source": "patent US7906655B2", "about": "“Hepatitis C virus inhibitors” (Bristol-Myers Squibb Company, priority 2008, dated 2011)", "data": [{"tested_on": "HCV 1b genotype", "assay": "HCV Replicon assay (HCV-neo replicon cells, wild-type)", "format": "cell-based", "settings": "HCV 1b genotype replicon; class symbols", "outline": "(§1)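 Inhibition was measured in HCV-neo (genotype 1b) replicon cells. Some assay versions used luciferase reporters.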", "units": {"EC50": "nM"}, "values": [{"smiles": "O=C(Cc1ccccn1)N1CCC[C@H]1c1nc2cc(CCc3ccc4[nH]c([C@@H]5CCCN5C(=O)Cc5ccccn5)nc4c3)ccc2[nH]1", "note": "[Example M43, 5,5′-(1,2-ethanediyl)bis(2-((2S)-1-(2-pyridinylacetyl)-2-pyrrolidinyl)-1H-benzimidazole)]", "EC50": "4.57 to 99"}, {"smiles": "O=C(Cc1ccccn1)N1CCC[C@H]1c1nc2ccc(C#Cc3ccc4[nH]c([C@@H]5CCCN5C(=O)[C@H]5CCCO5)nc4c3)cc2[nH]1", "note": "[Example M48, 5-((2-((2S)-1-(2-pyridinylacetyl)-2-pyrrolidinyl)-1H-benzimidazol-6-yl)ethynyl)-2-((2S)-1-((2R)-tetrahydro-2-furanylcarbonyl)-2-pyrrolidinyl)-1H-benzimidazole]", "EC50": "< 4.57"}, {"smiles": "CCc1ccccc1C(=O)N1CCC[C@H]1c1nc2ccc(C#Cc3ccc4[nH]c([C@@H]5CCCN5C(=O)[C@H]5CCCO5)nc4c3)cc2[nH]1", "note": "[Example M54.2]", "EC50": "100 to 999"}]}, {"tested_on": "HCV 1b genotype", "assay": "HCV Replicon assay (HCV-neo replicon cells, wild-type)", "format": "cell-based", "settings": "Hepatitis C virus, HCV 1b genotype replicon; class symbols", "outline": "as §1", "units": {"EC50": "nM"}, "values": [{"smiles": "O=C(Cc1ccccc1)N1C[C@@H](N2CCOCC2)C[C@H]1c1nc2cc(C#Cc3ccc4[nH]c([C@@H]5C[C@H](N6CCOCC6)CN5C(=O)Cc5ccccc5)nc4c3)ccc2[nH]1", "note": "[Example M37.3, 5,5′-(1,2-ethynediyl)bis(2-((2S,4S)-4-(4-morpholinyl)-1-(phenylacetyl)-2-pyrrolidinyl)-1H-benzimidazole)]", "EC50": "4.57 to 99"}, {"smiles": "O=C(Cc1ccccc1)N1CCC[C@H]1c1nc2cc(CCc3ccc4[nH]c([C@@H]5CCCN5C(=O)Cc5ccccc5)nc4c3)ccc2[nH]1", "note": "[Example M38]", "EC50": "< 4.57"}, {"smiles": "O=C(Cc1ccccc1)N1CCC[C@H]1c1nc2cc(-c3ccc4nc([C@@H]5CCCN5C(=O)Cc5ccccc5)[nH]c4c3)ccc2[nH]1", "note": "[Example M39, 2,2′-bis((2S)-1-(phenylacetyl)-2-pyrrolidinyl)-1H,1′H-5,5′-bibenzimidazole]", "EC50": "100 to 999"}, {"smiles": "O=C(OCc1ccccc1)N1CCC[C@H]1c1nc2cc(-c3ccc4nc([C@@H]5CCCN5C(=O)OCc5ccccc5)[nH]c4c3)ccc2[nH]1", "note": "[Example M40, dibenzyl(2S,2′S)-2,2′-(1H,1′H-5,5′-bibenzimidazole-2,2′-diyl)di(1-pyrrolidinecarboxylate)]", "EC50": "100 to 999"}, {"smiles": "O=C([C@H]1CCCO1)N1CCC[C@H]1c1nc2cc(CCc3ccc4[nH]c([C@@H]5CCCN5C(=O)[C@H]5CCCO5)nc4c3)ccc2[nH]1", "note": "[Example M42, 5,5′-(1,2-ethanediyl)bis(2-((2S)-1-((2R)-tetrahydro-2-furanylcarbonyl)-2-pyrrolidinyl)-1H-benzimidazole)]", "EC50": "4.57 to 99"}, {"smiles": "O=C(CC1CC1)N1CCC[C@H]1c1nc2cc(CCc3ccc4nc([C@@H]5CCCN5C(=O)CC5CC5)[nH]c4c3)ccc2[nH]1", "note": "[Example M44, 2-((2S)-1-(cyclopropylacetyl)-2-pyrrolidinyl)-5-(2-(2-((2S)-1-(cyclopropylacetyl)-2-pyrrolidinyl)-1H-benzimidazol-6-yl)ethyl)-1H-benzimidazole]", "EC50": "100 to 999"}, {"smiles": "O=C(C1CCC1)N1CCC[C@H]1c1nc2cc(CCc3ccc4nc([C@@H]5CCCN5C(=O)C5CCC5)[nH]c4c3)ccc2[nH]1", "note": "[Example M45, 2-((2S)-1-(cyclobutylcarbonyl)-2-pyrrolidinyl)-5-(2-(2-((2S)-1-(cyclobutylcarbonyl)-2-pyrrolidinyl)-1H-benzimidazol-6-yl)ethyl)-1H-benzimidazole]", "EC50": "100 to 999"}, {"smiles": "O=C(c1cccs1)N1CCC[C@H]1c1nc2cc(CCc3ccc4[nH]c([C@@H]5CCCN5C(=O)c5cccs5)nc4c3)ccc2[nH]1", "note": "[Example M45.1, 5,5′-(1,2-ethanediyl)bis(2-((2S)-1-(2-thienylcarbonyl)-2-pyrrolidinyl)-1H-benzimidazole)]", "EC50": "100 to 999"}, {"smiles": "O=C(Cc1cccnc1)N1CCC[C@H]1c1nc2cc(CCc3ccc4[nH]c([C@@H]5CCCN5C(=O)Cc5cccnc5)nc4c3)ccc2[nH]1", "note": "[Example M45.2, 5,5′-(1,2-ethanediyl)bis(2-((2S)-1-(3-pyridinylacetyl)-2-pyrrolidinyl)-1H-benzimidazole)]", "EC50": "4.57 to 99"}, {"smiles": "COC(=O)N[C@H](C(=O)N1CCCC[C@H]1c1nc2ccc(-c3ccc(-c4ccc5nc([C@@H]6CCCCN6C(=O)[C@@H](NC(=O)OC)C(C)C)[nH]c5c4)cc3)cc2[nH]1)C(C)C", "note": "[Example M46.3, Methyl((1S)-1-(((2S)-2-(5-(4-(2-((2S)-1-((2S)-2-((methoxycarbonyl)amino)-3-methylbutanoyl)-2-piperidinyl)-1H-benzimidazol-5-yl)phenyl)-1H-benzimidazol-2-yl)-1-piperidinyl)carbonyl)-2-methylpropyl)carbamate]", "EC50": "< 4.57"}, {"smiles": "O=C(Cc1ccccc1)N1CCC[C@H]1c1nc2cc(C#Cc3ccc4[nH]c([C@@H]5CCCN5C(=O)[C@H]5CCCO5)nc4c3)ccc2[nH]1", "note": "[Example M47, 5-((2-((2S)-1-(phenylacetyl)-2-pyrrolidinyl)-1H-benzimidazol-6-yl)ethynyl)-2-((2S)-1-((2R)-tetrahydro-2-furanylcarbonyl)-2-pyrrolidinyl)-1H-benzimidazole]", "EC50": "< 4.57"}, {"smiles": "O=C([C@H]1CCCO1)N1C[C@H](O)C[C@H]1c1nc2cc(C#Cc3ccc4[nH]c([C@@H]5C[C@@H](O)CN5C(=O)[C@H]5CCCO5)nc4c3)ccc2[nH]1", "note": "[Example M47.1, (3R,5S,3′R,5′S)-5,5′-(1,2-ethynediylbis(1H-benzimidazole-5,2-diyl))bis(1-((2R)-tetrahydro-2-furanylcarbonyl)-3-pyrrolidinol)]", "EC50": "100 to 999"}, {"smiles": "O=C(Cc1cccnc1)N1CCC[C@H]1c1nc2ccc(C#Cc3ccc4[nH]c([C@@H]5CCCN5C(=O)[C@H]5CCCO5)nc4c3)cc2[nH]1", "note": "[Example M49, 5-((2-((2S)-1-(3-pyridinylacetyl)-2-pyrrolidinyl)-1H-benzimidazol-6-yl)ethynyl)-2-((2S)-1-((2R)-tetrahydro-2-furanylcarbonyl)-2-pyrrolidinyl)-1H-benzimidazole]", "EC50": "< 4.57"}, {"smiles": "O=C(Cc1cccs1)N1CCC[C@H]1c1nc2cc(C#Cc3ccc4nc([C@@H]5CCCN5C(=O)[C@H]5CCCO5)[nH]c4c3)ccc2[nH]1", "note": "[Example M50, 5-((2-((2S)-1-((2R)-tetrahydro-2-furanylcarbonyl)-2-pyrrolidinyl)-1H-benzimidazol-6-yl)ethynyl)-2-((2S)-1-(2-thienylacetyl)-2-pyrrolidinyl)-1H-benzimidazole]", "EC50": "< 4.57"}, {"smiles": "O=C(c1ccco1)N1CCC[C@H]1c1nc2ccc(C#Cc3ccc4[nH]c([C@@H]5CCCN5C(=O)[C@H]5CCCO5)nc4c3)cc2[nH]1", "note": "[Example M51, 5-((2-((2S)-1-(2-furoyl)-2-pyrrolidinyl)-1H-benzimidazol-6-yl)ethynyl)-2-((2S)-1-((2R)-tetrahydro-2-furanylcarbonyl)-2-pyrrolidinyl)-1H-benzimidazole]", "EC50": "< 4.57"}, {"smiles": "O=C(CC1CC1)N1CCC[C@H]1c1nc2ccc(C#Cc3ccc4[nH]c([C@@H]5CCCN5C(=O)[C@H]5CCCO5)nc4c3)cc2[nH]1", "note": "[Example M52, 5-((2-((2S)-1-(cyclopropylacetyl)-2-pyrrolidinyl)-1H-benzimidazol-6-yl)ethynyl)-2-((2S)-1-((2R)-tetrahydro-2-furanylcarbonyl)-2-pyrrolidinyl)-1H-benzimidazole]", "EC50": "4.57 to 99"}, {"smiles": "CN(C)[C@@H](C(=O)N1CCC[C@H]1c1nc2cc(C#Cc3ccc4[nH]c([C@@H]5CCCN5C(=O)[C@H]5CCCO5)nc4c3)ccc2[nH]1)c1ccccc1", "note": "[Example M53, (1R)-N,N-dimethyl-2-oxo-1-phenyl-2-((2S)-2-(5-((2-((2S)-1-((2R)-tetrahydro-2-furanylcarbonyl)-2-pyrrolidinyl)-1H-benzimidazol-5-yl)ethynyl)-1H-benzimidazol-2-yl)-1-pyrrolidinyl) ethanamine]", "EC50": "< 4.57"}, {"smiles": "O=C(OCc1ccccc1)N1CCC[C@H]1c1nc2cc(C#Cc3ccc4[nH]c([C@@H]5CCCN5C(=O)[C@H]5CCCO5)nc4c3)ccc2[nH]1", "note": "[Example M54, benzyl (2S)-2-(5-((2-((2S)-1-((2R)-tetrahydro-2-furanylcarbonyl)-2-pyrrolidinyl)-1H-benzimidazol-5-yl)ethynyl)-1H-benzimidazol-2-yl)-1-pyrrolidine-carboxylate]", "EC50": "< 4.57"}, {"smiles": "O=C(c1ccccc1)N1CCC[C@H]1c1nc2ccc(C#Cc3ccc4[nH]c([C@@H]5CCCN5C(=O)[C@H]5CCCO5)nc4c3)cc2[nH]1", "note": "[Example M54.1, 5-((2-((2S)-1-benzoyl-2-pyrrolidinyl)-1H-benzimidazol-6-yl)ethynyl)-2-((2S)-1-((2R)-tetrahydro-2-furanylcarbonyl)-2-pyrrolidinyl)-1H-benzimidazole]", "EC50": "4.57 to 99"}, {"smiles": "O=C(c1cccnc1)N1CCC[C@H]1c1nc2ccc(C#Cc3ccc4[nH]c([C@@H]5CCCN5C(=O)[C@H]5CCCO5)nc4c3)cc2[nH]1", "note": "[Example M54.3, 5-((2-((2S)-1-(3-pyridinylcarbonyl)-2-pyrrolidinyl)-1H-benzimidazol-6-yl)ethynyl)-2-((2S)-1-((2R)-tetrahydro-2-furanylcarbonyl)-2-pyrrolidinyl)-1H-benzimidazole]", "EC50": "4.57 to 99"}]}, {"tested_on": "HCV 1b genotype", "assay": "HCV Replicon assay (HCV-neo replicon cells, wild-type)", "format": "cell-based", "settings": "Hepatitis C virus, HCV 1b genotype replicon; numeric values", "outline": "as §1", "units": {"EC50": "nM"}, "values": [{"smiles": "O=C(C1CC1)N1CCC[C@H]1c1nc2ccc(CCc3ccc4nc([C@@H]5CCCN5C(=O)C5CC5)[nH]c4c3)cc2[nH]1", "note": "[Example M41, 2-((2S)-1-(cyclopropylcarbonyl)-2-pyrrolidinyl)-5-(2-(2-((2S)-1-(cyclopropylcarbonyl)-2-pyrrolidinyl)-1H-benzimidazol-6-yl)ethyl)-1H-benzimidazole]", "EC50": 460}, {"smiles": "COC(=O)N[C@H](C(=O)N1[C@@H]2C[C@@H]2C[C@H]1c1nc2ccc(-c3ccc(-c4ccc5nc([C@@H]6C[C@H]7C[C@H]7N6C(=O)[C@@H](NC(=O)OC)C(C)C)[nH]c5c4)cc3)cc2[nH]1)C(C)C", "note": "[Example M46, methyl((1S)-1-(((1R,3S,5R)-3-(6-(4-(2-((1R,3S,5R)-2-((2S)-2-((methoxycarbonyl)amino)-3-methylbutanoyl)-2-azabicyclo[3.1.0]hex-3-yl)-1H-benzimidazol-6-yl)phenyl)-1H-benzimidazol-2-yl)-2-azabicyclo[3.1.0]hex-2-yl)carbonyl)-2-methylpropyl)carbamate]", "EC50": 0.006}, {"smiles": "CC(C)CN[C@H]1C[C@@H](c2nc3cc(C#Cc4ccc5[nH]c([C@@H]6C[C@H](NCC(C)C)CN6C(=O)[C@H]6CCCO6)nc5c4)ccc3[nH]2)N(C(=O)[C@H]2CCCO2)C1", "note": "[Example M47.2, (3S,5S,3′S,5′S)-5,5′-(1,2-ethynediylbis(1H-benzimidazole-5,2-diyl))bis(N-isobutyl-1-((2R)-tetrahydro-2-furanylcarbonyl)-3-pyrrolidinamine)]", "EC50": 610}]}]}
